Source: patent publication US8624027B2, “Combination therapy for treating cancer and diagnostic assays for use therein” (AbbVie Inc., priority 2005, dated 2014)

Columns and labels:
[1] = system: NCI-H146 human small cell lung carcinoma cells; experiment: Cellular efficacy in human tumor cell line (MTS viability assay); type: cell-based; settings: NCI-H146; 10% human serum, 48 hours; Table 1; read-out: NCI-H146 Cellular Efficacy EC50
Procedure, shortened: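 Cells plated at 50,000/well in medium with 10% human serum in place of FBS. Treated with 2-fold serial dilutions from 10 μM to 0.020 μM, in duplicate, at least 3 separate runs. Viable cells measured by MTS after 48 h of compound exposure.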

HCT116 cells = experiment: Cell viability of polyploid cells after ABT-263; type: cell-based, human; settings: cells made polyploid with 200 nM AZD1152 (with or without washout); 1 μM ABT-263 for 24 hours; not in diploid cells
Procedure: Cell viability was determined 72 hours post-transfection. The red curve represents a synergistic combination. […] HCT116 cells (FIG. 10C-FIG. 10F) were treated for 24 hours with DMSO or 200 nM AZD1152. AZD1152 was then either left in the culture medium (AZD 1152) or washed out by replacing the medium with drug-free growth medium (AZD 1152 washout).
Generally, cells were seeded at >90% viability (as determined by trypan blue exclusion) into 96-well plates overnight, treated with compounds or siRNAs for indicated duration, and the overall cell viability was determined by measuring luminescence.

[2] = Pharmacokinetic evaluation in rat; type: in vivo; settings: male, Sprague-Dawley, plasma, single 5 mg/kg oral dose, Table 1, read-out: Pharmacokinetic area under the plasma concentration Curve (rat) AUC0-∞
Procedure, shortened: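 Male Sprague-Dawley rats (n=3/group) received a single 2 mg/kg IV (jugular slow bolus) or 5 mg/kg oral gavage dose in 10% DMSO/PEG-400; tail-vein plasma sampled to 24 h. Acetonitrile-precipitated plasma quantified by LC-MS/MS (LOQ 0.01 μg/mL); AUC0-∞ by linear trapezoidal rule plus Ct/β extrapolation.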

HCT116 tumors = experiment: HCT116 tumor xenograft in mice; type: in vivo
mantle cell lymphoma = experiment: Oral efficacy of EXAMPLE 1 in combination therapy, antitumorigenesis on mantle cell lymphoma; type: in vivo
B-cell lymphoma = experiment: Oral efficacy of EXAMPLE 1 in combination therapy, antitumorigenesis on B-cell lymphoma; type: in vivo

CC1(C)CCC(c2ccc(Cl)cc2)=C(CN2CCN(c3ccc(C(=O)NS(=O)(=O)c4ccc(N[C@H](CCN5CCOCC5)CSc5ccccc5)c(S(=O)(=O)C(F)(F)F)c4)cc3)CC2)C1 [Example 1, N-(4-(4-((2-(4-chlorophenyl)-5,5-dimethyl-1-cyclohex-1-en-1-yl)methyl)piperazin-1-yl)benzoyl)-4-(((1R)-3-(morpholin-4-yl)-1-((phenylsulfanyl)methyl)propyl)amino)-3-((trifluoromethyl)sulfonyl)benzenesulfonamide]
EC50 [1]: 89.1 nM | cell viability of polyploid cells (HCT116 cells): loss of viability | AUC(0-inf) [2]: 5.01 µM·h | time to detection of active BAX conformer in tumors (HCT116 tumors; ABT-263 75 mkd PO in tumors from mice pretreated 3 days with AZD1152, not in naive tumors): ≤ 4 h | persistence of tumor regression, combination regimen of AZD1152/ABT-263 (HCT116 tumors; HCT116 colon carcinoma model): at least 2 weeks | antitumor efficacy, combination regimen of AZD1152/ABT-263 (HCT116 tumors; HCT116 colon carcinoma model, tumors ~0.5 gram): rapid and more sustained tumor regression | efficacy of cytotoxic agents during combination therapy (mantle cell lymphoma; EXAMPLE 1 orally with rituximab with CHOP, VELCADE): synergistically enhanced efficacy | complete tumor regression (mantle cell lymphoma; combination of EXAMPLE 1 and bortexomib): 10% | complete tumor regression (mantle cell lymphoma; combination of EXAMPLE 1 and rituximab with CHOP): 90% | efficacy of cytotoxic agents during combination therapy (B-cell lymphoma; EXAMPLE 1 orally with etoposide, vincristine, CHOP, rituximab, rapamycin): synergistically enhanced efficacy | complete tumor regression (B-cell lymphoma; combination of EXAMPLE 1 and rapamycin): 70% | complete tumor regression (B-cell lymphoma; combination of EXAMPLE 1 and rituximab): 70% | complete tumor regression (B-cell lymphoma; combination of EXAMPLE 1 and vincristine): 10%
